Laboratory results from ChEMBL document CHEMBL1201862, “PubChem BioAssay data set” (2004).
Active and inactive are the calls of the source. Rule as the data show it, for most assays here: actives have a measured IC50 and inactives only a lower limit.

How the values were obtained:
Type in all cases: functional
[1] = target: T1, Sentrin-specific protease 7 (Homo sapiens, UniProt Q9BQF6); assay: inhibition of human SENP7 cleavage activity – biochemical, luminescence, SAR follow-up (AID 504497)
T1 sequence (Q9BQF6 whole entry): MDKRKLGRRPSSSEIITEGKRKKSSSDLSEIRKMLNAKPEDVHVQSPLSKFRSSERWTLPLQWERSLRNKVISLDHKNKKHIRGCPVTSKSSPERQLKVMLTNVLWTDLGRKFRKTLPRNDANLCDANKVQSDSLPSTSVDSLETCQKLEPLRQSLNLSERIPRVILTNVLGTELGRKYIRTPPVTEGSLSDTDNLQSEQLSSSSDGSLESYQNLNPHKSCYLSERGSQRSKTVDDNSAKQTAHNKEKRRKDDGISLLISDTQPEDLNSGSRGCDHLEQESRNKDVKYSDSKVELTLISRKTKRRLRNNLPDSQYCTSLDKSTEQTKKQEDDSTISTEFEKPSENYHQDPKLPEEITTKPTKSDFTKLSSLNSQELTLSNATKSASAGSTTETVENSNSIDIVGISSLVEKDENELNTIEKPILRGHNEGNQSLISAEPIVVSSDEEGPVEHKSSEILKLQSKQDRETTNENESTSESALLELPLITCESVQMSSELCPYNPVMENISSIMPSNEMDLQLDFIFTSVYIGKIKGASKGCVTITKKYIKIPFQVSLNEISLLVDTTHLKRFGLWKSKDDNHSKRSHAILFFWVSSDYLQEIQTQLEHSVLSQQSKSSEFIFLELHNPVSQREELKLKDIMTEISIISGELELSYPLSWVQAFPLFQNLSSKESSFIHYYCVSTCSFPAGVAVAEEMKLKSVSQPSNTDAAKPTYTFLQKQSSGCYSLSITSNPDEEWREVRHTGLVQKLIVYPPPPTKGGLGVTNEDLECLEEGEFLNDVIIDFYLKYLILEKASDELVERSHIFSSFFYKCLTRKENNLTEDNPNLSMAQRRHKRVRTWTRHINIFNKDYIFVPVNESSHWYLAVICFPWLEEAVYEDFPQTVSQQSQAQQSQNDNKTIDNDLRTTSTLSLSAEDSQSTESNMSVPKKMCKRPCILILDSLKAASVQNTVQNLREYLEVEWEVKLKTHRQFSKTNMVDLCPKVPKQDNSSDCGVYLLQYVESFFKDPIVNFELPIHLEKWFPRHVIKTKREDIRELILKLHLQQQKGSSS

[2] = target: T2, Sentrin-specific protease 6 (Homo sapiens, UniProt Q9GZR1); assay: inhibition of human SENP6 catalytic domain – biochemical, luminescence, set 2, SAR follow-up (AID 588598)
T2 sequence (Q9GZR1 whole entry): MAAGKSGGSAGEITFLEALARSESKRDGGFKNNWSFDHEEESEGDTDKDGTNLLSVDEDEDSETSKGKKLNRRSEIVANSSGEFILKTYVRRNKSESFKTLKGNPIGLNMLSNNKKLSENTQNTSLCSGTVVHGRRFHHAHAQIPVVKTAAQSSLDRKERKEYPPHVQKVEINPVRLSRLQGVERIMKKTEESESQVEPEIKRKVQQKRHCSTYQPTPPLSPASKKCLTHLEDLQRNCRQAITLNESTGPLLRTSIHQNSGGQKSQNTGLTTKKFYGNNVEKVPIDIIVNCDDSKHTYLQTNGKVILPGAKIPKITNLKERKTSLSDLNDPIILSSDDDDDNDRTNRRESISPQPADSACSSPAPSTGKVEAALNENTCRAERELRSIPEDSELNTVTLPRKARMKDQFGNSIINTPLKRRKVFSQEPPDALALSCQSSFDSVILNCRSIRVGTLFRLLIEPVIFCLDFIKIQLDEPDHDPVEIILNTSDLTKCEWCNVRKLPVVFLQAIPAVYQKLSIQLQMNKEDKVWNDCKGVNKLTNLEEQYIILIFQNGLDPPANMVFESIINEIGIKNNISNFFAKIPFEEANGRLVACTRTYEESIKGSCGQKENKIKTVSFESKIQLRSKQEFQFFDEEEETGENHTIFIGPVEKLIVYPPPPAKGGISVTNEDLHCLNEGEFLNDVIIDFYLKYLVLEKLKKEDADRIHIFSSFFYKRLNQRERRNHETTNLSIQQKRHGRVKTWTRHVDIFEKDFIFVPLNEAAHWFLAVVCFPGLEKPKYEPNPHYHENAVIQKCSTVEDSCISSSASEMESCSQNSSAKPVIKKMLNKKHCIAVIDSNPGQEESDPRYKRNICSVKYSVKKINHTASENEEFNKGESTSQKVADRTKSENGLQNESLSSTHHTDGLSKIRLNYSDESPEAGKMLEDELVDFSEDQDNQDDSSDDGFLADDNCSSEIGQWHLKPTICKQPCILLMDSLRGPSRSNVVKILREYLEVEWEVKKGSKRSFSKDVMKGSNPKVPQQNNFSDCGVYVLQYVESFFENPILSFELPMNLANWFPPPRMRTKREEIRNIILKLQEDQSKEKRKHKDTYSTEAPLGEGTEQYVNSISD

[3] = target: T3, Caspase-3 (Homo sapiens, UniProt P42574); assay: SAR Analysis of small molecule inhibitors of Sentrin-specific proteases (SENPs) using a Caspase-3 Selectivity assay. [Related pubchem assays (depositor defined):AID2540, AID2599, AID434973, AID489001]
T3 sequence (P42574 whole entry): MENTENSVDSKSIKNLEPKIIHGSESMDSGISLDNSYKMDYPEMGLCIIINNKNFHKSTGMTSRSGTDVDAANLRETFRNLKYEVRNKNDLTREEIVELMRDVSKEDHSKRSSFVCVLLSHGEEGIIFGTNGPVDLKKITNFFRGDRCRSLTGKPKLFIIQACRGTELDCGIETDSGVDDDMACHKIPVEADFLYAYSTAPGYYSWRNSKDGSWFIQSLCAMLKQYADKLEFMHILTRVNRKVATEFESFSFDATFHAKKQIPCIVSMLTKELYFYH

[4] = target: T1, Sentrin-specific protease 7; assay: inhibition of human SENP7 cleavage activity – biochemical, luminescence, set 2, SAR follow-up (AID 588600)
[5] = target: T2, Sentrin-specific protease 6; assay: SAR Analysis of small molecule inhibitors of Sentrin-specific protease 6 (SENP6) using a Luminescent assay. [Related pubchem assays (depositor defined):AID2582, AID2599]
[6] = target: T4, Sentrin-specific protease 8 (Homo sapiens, UniProt Q96LD8); assay: inhibition of sentrin protease 8 – biochemical, luminescence, set 2, SAR follow-up (AID 588601)
T4 sequence (Q96LD8 whole entry): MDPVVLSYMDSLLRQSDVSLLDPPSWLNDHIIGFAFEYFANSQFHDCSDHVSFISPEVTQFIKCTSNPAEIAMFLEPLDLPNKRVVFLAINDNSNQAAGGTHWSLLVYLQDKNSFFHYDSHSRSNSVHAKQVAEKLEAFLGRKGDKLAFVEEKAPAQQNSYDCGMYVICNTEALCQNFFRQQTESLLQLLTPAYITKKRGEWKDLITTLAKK

[7] = target: T3, Caspase-3; assay: inhibition of recombinant caspase-3 activity – biochemical, luminescence, set 2, selectivity assay for SENP protease inhibitor project, SAR follow-up (AID 588599)
[8] = target: T4, Sentrin-specific protease 8; assay: inhibition of human SENP8 cleavage activity – biochemical, luminescence, SAR follow-up (AID 504501)
[9] = target: T5, Protein disulfide-isomerase (Homo sapiens, UniProt P07237); assay: inhibition of PDI-driven insulin aggregation – biochemical, turbidity, absorbance, cherry-picked samples, dose response (AID 602350)
[10] = target: T5, Protein disulfide-isomerase; assay: inhibition of PDI-mediated insulin reduction – biochemical, turbidity, absorbance, cherry-picked samples, set 2, dose response (AID 624274)
[11] = target: Sphingosine 1-phosphate receptor 2 (Homo sapiens, UniProt O95136); assay: activation of human S1P2 receptor – cell-based, fluorescence, set 2, counter-screen for S1P4 agonist project, late-stage follow-up (AID 504873)
[12] = target: Sphingosine 1-phosphate receptor 1 (Homo sapiens, UniProt P21453); assay: Late-stage fluorescence-based dose-response cell-based counterscreen assay to identify agonists of the Sphingosine 1-Phosphate Receptor 4 (S1P4): Sphingosine 1-Phosphate Receptor 1 (S1P1) agonist assay Set 2.
[13] = target: Sphingosine 1-phosphate receptor 5 (Homo sapiens, UniProt Q9H228); assay: activation of human S1P5 receptor – cell-based, fluorescence, set 2, counter-screen for S1P4 agonist project, late-stage follow-up (AID 504867)
[14] = target: Sphingosine 1-phosphate receptor 3 (Homo sapiens, UniProt Q99500); assay: Late-stage fluorescence-based dose-response cell-based counterscreen assay to identify agonists of the Sphingosine 1-Phosphate Receptor 4 (S1P4): Sphingosine 1-Phosphate Receptor 3 (S1P3) agonist assay Set 2.
Sequence of Sphingosine 1-phosphate receptor 3 (Q99500 whole entry): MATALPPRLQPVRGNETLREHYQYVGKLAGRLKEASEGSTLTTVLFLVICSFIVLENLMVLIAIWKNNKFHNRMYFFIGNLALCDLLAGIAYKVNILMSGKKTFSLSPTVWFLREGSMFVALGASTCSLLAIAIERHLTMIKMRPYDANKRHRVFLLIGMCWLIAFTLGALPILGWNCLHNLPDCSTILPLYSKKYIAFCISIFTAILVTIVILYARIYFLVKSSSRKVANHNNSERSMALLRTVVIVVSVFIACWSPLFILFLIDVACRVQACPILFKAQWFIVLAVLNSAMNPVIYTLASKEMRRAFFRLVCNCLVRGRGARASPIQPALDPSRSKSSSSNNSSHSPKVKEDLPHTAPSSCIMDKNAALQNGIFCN

T5 sequence (P07237 whole entry): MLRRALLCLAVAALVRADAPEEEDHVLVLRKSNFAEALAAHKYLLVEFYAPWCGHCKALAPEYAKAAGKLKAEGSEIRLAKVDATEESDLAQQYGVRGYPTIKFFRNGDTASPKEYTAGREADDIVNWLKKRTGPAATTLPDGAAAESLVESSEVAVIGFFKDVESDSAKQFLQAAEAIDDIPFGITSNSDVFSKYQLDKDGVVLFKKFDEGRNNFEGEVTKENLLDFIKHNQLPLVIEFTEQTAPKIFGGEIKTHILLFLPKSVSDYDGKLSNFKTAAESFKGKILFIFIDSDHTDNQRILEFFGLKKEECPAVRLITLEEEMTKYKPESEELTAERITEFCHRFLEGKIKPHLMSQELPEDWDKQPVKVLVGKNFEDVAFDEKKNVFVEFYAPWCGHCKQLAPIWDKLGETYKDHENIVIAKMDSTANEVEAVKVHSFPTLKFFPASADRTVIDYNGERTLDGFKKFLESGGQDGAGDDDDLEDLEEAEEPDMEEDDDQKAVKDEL
Sequence of Sphingosine 1-phosphate receptor 5 (Q9H228 whole entry): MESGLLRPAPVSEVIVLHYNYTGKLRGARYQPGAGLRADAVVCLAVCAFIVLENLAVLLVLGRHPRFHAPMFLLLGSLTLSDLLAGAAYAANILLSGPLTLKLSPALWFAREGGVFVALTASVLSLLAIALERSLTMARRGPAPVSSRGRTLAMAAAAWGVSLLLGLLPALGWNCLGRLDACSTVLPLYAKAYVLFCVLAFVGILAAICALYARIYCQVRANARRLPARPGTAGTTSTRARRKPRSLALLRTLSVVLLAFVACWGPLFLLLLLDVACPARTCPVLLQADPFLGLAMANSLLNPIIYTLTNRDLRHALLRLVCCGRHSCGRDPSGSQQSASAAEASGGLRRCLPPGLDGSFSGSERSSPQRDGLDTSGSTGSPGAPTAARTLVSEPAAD
Sequence of Sphingosine 1-phosphate receptor 1 (P21453 whole entry): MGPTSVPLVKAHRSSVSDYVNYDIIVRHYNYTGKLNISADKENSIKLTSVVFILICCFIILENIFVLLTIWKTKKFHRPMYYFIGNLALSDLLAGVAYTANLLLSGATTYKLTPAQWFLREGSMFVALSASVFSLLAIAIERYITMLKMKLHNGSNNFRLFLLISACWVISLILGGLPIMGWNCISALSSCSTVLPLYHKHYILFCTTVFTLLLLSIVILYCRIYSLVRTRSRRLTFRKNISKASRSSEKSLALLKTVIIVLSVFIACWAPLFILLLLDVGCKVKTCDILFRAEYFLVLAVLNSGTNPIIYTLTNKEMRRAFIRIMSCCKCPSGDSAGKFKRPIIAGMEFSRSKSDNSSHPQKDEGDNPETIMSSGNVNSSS
Sequence of Sphingosine 1-phosphate receptor 2 (O95136 whole entry): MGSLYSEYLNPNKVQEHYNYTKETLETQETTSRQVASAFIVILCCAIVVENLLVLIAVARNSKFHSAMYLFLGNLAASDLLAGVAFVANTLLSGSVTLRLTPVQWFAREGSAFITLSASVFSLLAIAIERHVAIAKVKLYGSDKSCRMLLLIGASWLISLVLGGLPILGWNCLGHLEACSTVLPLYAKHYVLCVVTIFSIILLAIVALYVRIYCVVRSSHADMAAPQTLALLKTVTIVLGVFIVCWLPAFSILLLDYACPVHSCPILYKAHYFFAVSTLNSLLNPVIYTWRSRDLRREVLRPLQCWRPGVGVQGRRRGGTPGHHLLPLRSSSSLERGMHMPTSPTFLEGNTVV

`Oc1ccccc1-c1nc(/C=C/c2ccccc2)no1` was tested, and the IC50 [1] was 2.8 µM (active), the IC50 [2] was 2.12 µM (active) and the IC50 [3] was 6.9 µM (active). The IC50 [4] was 2.71 µM (active), the IC50 [5] was 8.4 µM (active) and the IC50 [6] was 2.54 µM (active). The IC50 [7] was 3.6 µM (active) and the IC50 [8] was 71 µM (active).
In the case of `CN(C)C1(c2nnnn2CCOC(=O)Nc2ccc(Cl)cc2)CCCCC1`, the AC50 [9] was < 0.009 µM (active) and the AC50 [10] was 0.009 µM (active).
With `CC/N=C1/S/C(=C/c2cc(C)n(-c3ccc(F)cc3F)c2C)C(=O)N1CC` the EC50 [11] was > 25 µM (inactive), the EC50 [12] was 0.816 µM (active) and the EC50 [13] was 6.18 µM (active). For the same compound, the EC50 [14] was > 25 µM (inactive).
